Experimental data taken from patent US20090124599A1, “Fungicidal Mixtures” (Basf Aktiengesellschaft, priority 2004, published 2009).

Tests used:
[1] = system: Botrytis cinerea; experiment: Activity against the gray mold pathogen Botrytis cinerea in the microtiter test; type: cell-based; settings: single active, day 7 after inoculation, absorption 405 nm
[2] = system: Phytophthora infestans; type: in vivo, Phytophthora infestans on tomato plants; settings: 16 ppm; single active; sprayed 5 days before infection, assessed after 6 days; control 90% infection

| Compound | Observed efficacy (%) ([1]; 0.063 ppm) | Observed efficacy (%) ([1]; 0.125 ppm) | Observed efficacy (%) ([1]; 0.25 ppm) | Observed efficacy (%) [2] |
| --- | --- | --- | --- | --- |
| CO/C=C(/C(=O)OC)c1ccccc1CO/N=C(C)/C=C/c1ccc(Cl)cc1 [enestroburin (I), methyl 2-{2-[3-(4-chlorophenyl)-1-methylallylideneaminooxymethyl]phenyl}-3-methoxyacrylate] | 0% | 0% | 0% | – |
| Cc1cc(C)nc(Nc2ccccc2)n1 [pyrimethanil (II-9)] | – | 70% | – | – |
| O=[N+]([O-])c1cc(C(F)(F)F)c(Cl)c([N+](=O)[O-])c1Nc1ncc(C(F)(F)F)cc1Cl [fluazinam (II-1), 3-chloro-N-[3-chloro-2,6-dinitro-4-(trifluoromethyl)phenyl]-5-(trifluoromethyl)-2-pyridineamine] | 35% | – | – | 22% |
